We go through 1 compound from paper PMC9069406 (Acta Pharmaceutica Sinica. B, 2021).

The test relates to 4T1 (murine TNBC) cells. The test is described as follows: TNBC allograft model. The test is classed as in vivo, mice. As to conditions: 0.5 mg/kg i.p. daily, 18 days.

SMILES strings stand for the structures.

Take `N.N.[Cl][Pt][Cl]` [cisplatin]: the “reduction of average tumor weight at sacrifice” value is listed as 25.2%.
